Results from patent publication US5543415A, “Antidepressants” (Kyowa Hakko Kogyo Co., Ltd., priority 1992, dated 1996).

What follows are compounds tested on ddY-strain male mice (assay: Acute Toxicity Test (minimum lethal dose, oral)). Settings: seven days after administration.
Format: in vivo
Procedure: Test compounds were orally administered to groups of ddY-strain male mice weighing 20±1 g, each group consisting of three mice. Seven days after the administration, minimum lethal dose (MLD) of each compound was determined by observing the mortality.

Compound	MLD (minimum lethal dose)
CCn1c(=O)c2[nH]c(/C=C/c3cc(OC)c(OC)cc3[N+](=O)[O-])nc2n(CC)c1=O [Compound 119, (E)-8-(4,5-Dimethoxy-2-nitrostyryl)-1,3-diethylxanthine]	> 100 mg/kg
CCn1c(=O)c2c(nc(/C=C/c3cccc([N+](=O)[O-])c3)n2C)n(CC)c1=O [Compound 160, (E)-1,3-Diethyl-7-methyl-8-(3-nitrostyryl)xanthine]	> 100 mg/kg
CCn1c(=O)c2c(nc(/C=C/c3cc(F)cc(F)c3)n2C)n(CC)c1=O [Compound 156, (E)-8-(3,5-Difluorostyryl)-1,3-diethyl-7-methylxanthine]	> 100 mg/kg
CCCn1c(=O)c2[nH]c(/C=C/c3ccc(OCC)cc3)nc2n(CCC)c1=O [Compound 48, (E)-8-(4-Ethoxystyryl)-1,3-dipropylxanthine]	> 100 mg/kg
CCn1c(=O)c2[nH]c(/C=C/c3ccc(OC)c(C)c3OC)nc2n(CC)c1=O [Compound 85, (E)-8-(2,4-Dimethoxy-3-methylstyryl)-1,3-diethylxanthine]	> 300 mg/kg
CCCn1c(=O)c2[nH]c(/C=C/c3ccc4c(c3)OCO4)nc2n(CCC)c1=O [Compound 19, (E)-8-(3,4-Methylenedioxystyryl)-1,3-dipropylxanthine]	> 300 mg/kg
CCCn1c(=O)c2c(nc(/C=C/c3ccc(OCOC)c(OCOC)c3)n2C)n(CCC)c1=O [Compound 68, (E)-8-[3,4-Bis(methoxymethoxy)styryl]-7-methyl-1,3-dipropylxanthine]	> 100 mg/kg
COc1ccc(/C=C/c2nc3c([nH]2)c(=O)n(C)c(=O)n3C)c(OC)c1 [Compound 99, (E)-8-(2,4-Dimethoxystyryl)theophylline]	> 100 mg/kg
COc1ccc(/C=C/c2nc3c([nH]2)c(=O)n(C)c(=O)n3C)c(OC)c1C [Compound 103, (E)-8-(2,4-Dimethoxy-3-methylstyryl)theophylline]	> 100 mg/kg
CCn1c(=O)c2c(nc(/C(C)=C/c3ccccc3)n2C)n(CC)c1=O [Compound 134, (E)-1,3-Diethyl-7-methyl-8-(α-methylstyryl)xanthine]	> 300 mg/kg
CCCn1c(=O)c2c(nc(/C=C/c3ccc(OC)c(Br)c3)n2C)n(CCC)c1=O [Compound 57, (E)-8-(3-Bromo-4-methoxystyryl)-7-methyl-1,3-dipropylxanthine]	> 100 mg/kg
CCCCOc1ccc(/C=C/c2nc3c([nH]2)c(=O)n(CCC)c(=O)n3CCC)cc1 [Compound 52, (E)-8-(4-Butoxystyryl)-1,3-dipropylxanthine]	> 100 mg/kg
COc1cccc(/C=C/c2nc3c(c(=O)n(C)c(=O)n3C)n2C)c1OC [Compound 98, (E)-8-(2,3-Dimethoxystyryl)caffeine]	> 300 mg/kg
CCn1c(=O)c2[nH]c(/C=C/c3cccc([N+](=O)[O-])c3)nc2n(CC)c1=O [Compound 159, (E)-1,3-Diethyl-8-(3-nitrostyryl)xanthine]	> 100 mg/kg
CCn1c(=O)c2c(nc(/C=C/c3ccc(OCC(=O)O)cc3)n2C)n(CC)c1=O [Compound 190, (E)-8-(4-Carboxymethoxystyryl)-1,3-diethyl-7-methylxanthine]	> 100 mg/kg
CCn1c(=O)c2[nH]c(/C=C/c3cc(OC)c4c(c3)OCO4)nc2n(CC)c1=O [Compound 178, (E)-1,3-Diethyl-8-(3-methoxy-4,5-methylenedioxystyryl)xanthine]	> 100 mg/kg
CCn1c(=O)c2c(nc(/C=C/c3cccc(OC(F)(F)F)c3)n2C)n(CC)c1=O [Compound 144, (E)-1,3-Diethyl-7-methyl-8-(3-trifluoromethoxystyryl)xanthine]	> 100 mg/kg

Compound	MLD (minimum lethal dose)
CCn1c(=O)c2[nH]c(/C=C/c3ccc(C(F)(F)F)cc3)nc2n(CC)c1=O [Compound 135, (E)-1,3-Diethyl-8-(4-trifluoromethylstyryl)xanthine]	> 100 mg/kg
CCn1c(=O)c2[nH]c(/C=C/c3ccc(OC)c(OC)c3OC)nc2n(CC)c1=O [Compound 79, (E)-1,3-Diethyl-8-(2,3,4-trimethoxystyryl)xanthine]	> 300 mg/kg
CCn1c(=O)c2c(nc(/C=C/c3ccc(OCCCCBr)cc3)n2C)n(CC)c1=O [Compound 186, (E)-8-[4-(4-Bromobutoxy)styryl]-1,3-diethyl-7-methylxanthine]	> 100 mg/kg
CCCn1c(=O)c2[nH]c(/C=C/c3ccc(OC)c4ccccc34)nc2n(CCC)c1=O [Compound 62, (E)-8-[2-(4-Methoxynaphthyl)vinyl]-1,3-dipropylxanthine]	> 100 mg/kg
CCCn1c(=O)c2[nH]c(/C=C/c3cccc(OC)c3OC)nc2n(CCC)c1=O [Compound 29, (E)-8-(2,3-Dimethoxystyryl)-1,3-dipropylxanthine]	> 100 mg/kg
CCn1c(=O)c2[nH]c(/C=C/c3cc(C)c(OC)cc3C)nc2n(CC)c1=O [Compound 83, (E)-1,3-Diethyl-8-(4-methoxy-2,5-dimethylstyryl)xanthine]	> 300 mg/kg
CCn1c(=O)c2[nH]c(/C=C/c3cccc(OC(F)(F)F)c3)nc2n(CC)c1=O [Compound 143, (E)-1,3-Diethyl-8-(3-trifluoromethoxystyryl)xanthine]	> 100 mg/kg
CCn1c(=O)c2[nH]c(/C=C/c3cccc(Br)c3)nc2n(CC)c1=O [Compound 161, (E)-8-(3-Bromostyryl)-1,3-diethylxanthine]	> 100 mg/kg
CCn1c(=O)c2c(nc(/C=C/c3cccc(OC)c3OC)n2C)n(CC)c1=O [Compound 76, (E)-8-(2,3-Dimethoxystyryl)-1,3-diethyl-7-methylxanthine]	> 300 mg/kg
CCCn1c(=O)c2c(nc(/C=C/c3ccc4c(c3)OCO4)n2C)n(CCC)c1=O [Compound 20, (E)-7-Methyl-8-(3,4-methylenedioxystyryl)-1,3-dipropylxanthine]	> 300 mg/kg
CCCn1c(=O)c2[nH]c(/C=C/c3ccc(OC)c(C)c3OC)nc2n(CCC)c1=O [Compound 15, (E)-8-(2,4-Dimethoxy-3-methylstyryl)-1,3-dipropylxanthine]	> 100 mg/kg
CCCn1c(=O)c2c(nc(/C=C/c3ccc(C)c(C)c3)n2C)n(CCC)c1=O [Compound 32, (E)-8-(3,4-Dimethylstyryl)-7-methyl-1,3-dipropylxanthine]	> 300 mg/kg
CCn1c(=O)c2[nH]c(/C=C/c3cccc(Cl)c3)nc2n(CC)c1=O [Compound 131, (E)-8-(3-Chlorostyryl)-1,3-diethylxanthine]	> 100 mg/kg
CCn1c(=O)c2c(nc(/C=C/c3cc(OC)c(OC)cc3[N+](=O)[O-])n2C)n(CC)c1=O [Compound 120, (E)-8-(4,5-Dimethoxy-2-nitrostyryl)-1,3-diethyl-7-methylxanthine]	> 300 mg/kg
CCn1c(=O)c2c(nc(/C=C/c3cccc(F)c3)n2C)n(CC)c1=O [Compound 128, (E)-1,3-Diethyl-8-(3-fluorostyryl)-7-methylxanthine]	> 300 mg/kg
COc1ccc(/C=C/c2nc3c(c(=O)n(C)c(=O)n3C)n2C)c(OC)c1C [Compound 104, (E)-8-(2,4-Dimethoxy-3-methylstyryl)caffeine]	> 100 mg/kg
